The values that follow come from patent US11203610B2, “2′3′ cyclic dinucleotides with phosphonate bond activating the sting adaptor protein” (INSTITUTE OF ORGANIC CHEMISTRY AND BIOCHEMISTRY ASCR, V.V.I., priority 2017, dated 2021).

The structures appear in SMILES notation.

One assay concerns the target T1, AQ STING (G230A-R293Q) (Homo sapiens, UniProt Q86WV6, G230A/H232R/R293Q).
T1 construct: truncated human WT STING or AQ STING (amino acid residues 140-343); 8xHis (N, cleaved yes); SUMO (N, cleaved yes); made in house; host or cells: E. coli Rosetta-gami B (DE3)
The experiment in a line: Differential Scanning Fluorimetry with AQ STING. As to conditions: thermal shift vs STING apoprotein; 150 μM CDN; 0.1 mg/ml truncated human AQ STING; SYPRO Orange; read-out: DSF ΔTm (° C.) AQ STING. Format: binding. On the procedure: (§1) WT STING and AQ STING Proteins
(§2) Purified PCR products were cleaved with restriction enzymes BamHI (cat. #R0136S, NEB, Ipswich, USA) and NotI (cat. #R0189S, NEB, Ipswich, USA) and cloned into the pSUMO vector linearized with the identical enzymes.
(§3) The resin was poured into a chromatography column, washed with 50 ml buffer A (50 mmol·l^−1 TrisCl (pH 8.0), 800 mmol·l^−1 NaCl, 3 mmol·l^−1 β-mercaptol; 10% glycerol; 20 mmol·l^−1 imidazole) and 8-His-SUMO tagged STING proteins were eluted with 15 ml buffer A containing 300 mmol·l^−1 imidazole. […] Proteins were concentrated with Amicon® Ultra-15 10 K device (cat. #UFC901008, Merck Millipore, Billerica, USA) and flash frozen in liquid N2.
(§4) Differential Scanning Fluorimetry with WT STING and AQ STING
(§5) 20 μL solutions of the reaction mixtures were pipetted in triplicates into 96 well optical reaction plates and thermal denaturation of samples were performed on real time PCR cycler (LightCycler® 480 Instrument II—Roche, Basel, Switzerland). The first derivative of the thermal denaturation curves was performed to calculate denaturing temperatures of STING—CDN complexes and STING apoproteins. The thermal shift for each CDN was calculated by subtracting the average denaturing temperature of STING apoprotein from the average denaturing temperature of STING CDN complex.
In general terms: In DSF a fluorescence change marks the thermal transition of the protein.

Assay [1] deals with T2, WT STING (Homo sapiens, UniProt Q86WV6, H232R). Kind of assay: Digitonin assay using 293T wtSTING-FL reporter cells. Format: cell-based. As to conditions: 293T wtSTING-FL cells; 30 minutes in Digitonin buffer, then 5 hours; ISRE firefly luciferase reporter; 8-point dose-response curve; read-out: Digitonin assay EC50 (μmol · l^−1) WT STING. The text has this: ISRE Reporter Plasmid (pGL64.27-4xISRE)
Two complementary oligonucleotides of the sequence […] […] […] […] […] The oligonucleotides were mixed in equal molar amounts, hybridized, and cleaved by restriction endonucleases HindIII (cat. #. R0104S, NEB, Ipswich, USA) and BglII (cat. #R0144S, NEB, Ipswich, USA). Ultimately, they were ligated into plasmid pGL4.27 (cat. #E6651, Promega, Madison, USA) linearized with the same enzymes. As result the sequence with four ISRE sites was placed upstream of the minimum promoter of firefly luciferase reporter gene.
After 5 minutes incubation at room temperature (RT), 250 μL of the mixture was added dropwise to the cells in one well. Cells were incubated 36 hours at 37° C. with 5% CO2, and then detached with 0.05% Trypsin and 0.22 g/L EDTA (both cat. #L0941, Biowest, Riverside, USA).
Transfected cells were seeded onto poly-D-lysine coated six well plates at density 50,000 cells per 1 cm^2 in DMEM medium with high glucose containing 10% heat inactivated FBS, 30 g/mL blasticidin (cat. #ant-bl-05, InvivoGen, San Diego, USA), 0.06 mg/ml Penicillin G and 0.1 mg/ml Streptomycin Sulfate (both cat. #. L0018, Biowest, Riverside, USA). The medium was replenished every 3-4 days until visible colonies of cells resistant to blasticidin were formed.
Blasticidin resistant cells stably expressing WT STING were further transfected with […] plasmid following the same procedure as described above. […] Homogeneous culture of stably double transfected cells was prepared by limiting dilution of cells in 96 well plates and wells with cells were selected that originated from a single cell.
The medium was removed next day and three fold serial dilutions of compounds in Digitonin buffer containing 50 mmol·l^−1 HEPES (cat. #H3375, Sigma Aldrich, Czech Republic) pH 7.0, 100 mmol·l^−1 KCl, 3 mmol·l^−1 MgCl2, 0.1 mmol·l^−1 DTT (cat. #D0632, Sigma Aldrich, Czech Republic), 85 mmol·l^−1 Sucrose (cat. #S7903, Sigma Aldrich, Czech Republic), 0.2% BSA (cat. #A2153, Sigma Aldrich, Czech Republic), 1 mmol·l^−1 ATP (cat. #A1852, Sigma Aldrich, Czech Republic), 0.1 mmol·l^−1 GTP (cat. #G8877, Sigma Aldrich, Czech Republic), and 10 μg/mL Digitonin A (cat. #D141, Sigma Aldrich, Czech Republic) were added to the cells. The buffer was removed after 30 minutes incubation at 37° C. with 5% CO2, the cells were washed once with 100 μl of cultivation medium, and 100 μl of medium was added to each well. The plates with cells were incubated for 5 hours at 37° C. with 5% CO2, 50 μl of the medium was removed and 30 μl of ONE-Glo™ Luciferase Assay System reagent (cat. #E6120, Promega, Madison, USA) was added to each well. Luminescence was read on Synergy H1 (Biotek, Winooski, USA).
Target sequence in this assay (Q86WV6 whole entry H232R): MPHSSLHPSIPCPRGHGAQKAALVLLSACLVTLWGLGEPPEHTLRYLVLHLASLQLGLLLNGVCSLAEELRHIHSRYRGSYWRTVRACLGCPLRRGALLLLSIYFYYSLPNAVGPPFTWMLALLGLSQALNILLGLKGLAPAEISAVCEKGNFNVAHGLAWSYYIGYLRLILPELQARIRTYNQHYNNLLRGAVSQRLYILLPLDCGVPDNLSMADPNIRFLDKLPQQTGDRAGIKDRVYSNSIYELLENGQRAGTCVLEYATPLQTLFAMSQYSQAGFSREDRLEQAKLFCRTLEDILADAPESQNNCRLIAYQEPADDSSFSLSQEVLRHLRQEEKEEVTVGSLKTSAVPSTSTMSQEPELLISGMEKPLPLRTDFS
On the technique in general: In a reporter assay the amount or activity of a reporter protein is the signal.

Assay [2] has as its target T2, WT STING. The experiment in a line: Differential Scanning Fluorimetry with WT STING. It counts as binding. The arrangement: truncated human WT STING or AQ STING (amino acid residues 140-343); 8xHis (N, cleaved yes); SUMO (N, cleaved yes); made in house; host or cells: E. coli Rosetta-gami B (DE3). The following applies: thermal shift vs STING apoprotein; 150 μM CDN; 0.1 mg/ml truncated human WT STING; SYPRO Orange; read-out: DSF ΔTm (° C.) WT STING. How it is done:
as §1, §2, §3, §4, §5
Target sequence in this assay (Q86WV6 140-343 H232R): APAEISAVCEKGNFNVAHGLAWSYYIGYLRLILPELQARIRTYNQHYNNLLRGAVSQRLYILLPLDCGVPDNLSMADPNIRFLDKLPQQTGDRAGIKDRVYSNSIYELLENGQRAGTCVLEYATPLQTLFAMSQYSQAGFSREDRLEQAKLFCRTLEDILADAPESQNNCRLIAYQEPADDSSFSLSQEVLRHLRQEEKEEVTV

T1 sequence (Q86WV6 140-343 G230A/H232R/R293Q): as the sequence (Q86WV6 140-343 H232R) above, with G91A, R154Q counted along it

As a reminder, the ΔTm is the change in melting temperature against a reference sample. A word on the EC50: it is the midpoint of the concentration-response curve. Take `Nc1ncc2ncn([C@@H]3O[C@@H]4COP(=O)(O)O[C@@H]5[C@H](O)[C@@H](OCP(=O)(O)O[C@H]4[C@H]3O)O[C@H]5n3cnc4c(=O)[nH]c(N)nc43)c2n1` [Compound 48, (1R,6R,8R,9R,10S,15R,17R,18S)-17-(2-amino-6-oxo-6,9-dihydro-1H-purin-9-yl)-8-(2-amino-9H-purin-9-yl)-3,9,12,18-tetrahydroxy-2,4,7,11,14,16-hexaoxa-3λ^5,12λ^5-diphosphatricyclo[13.2.1.0^6,10]octadecane-3,12-dione]: the ΔTm at 150 µM at AQ STING (G230A-R293Q) turned out to be 11.6 °C; at WT STING [2], 3.9 °C. The concentration giving a half-maximal response (EC50) at WT STING [1] worked out at 170 nM.
With `CNc1ncnc2c1ncn2[C@@H]1O[C@@H]2COP(=O)(O)O[C@@H]3[C@H](O)[C@@H](OCP(=O)(O)O[C@H]2[C@H]1O)O[C@H]3n1cnc2c(=O)[nH]c(N)nc21` [Compound 49, (1R,6R,8R,9R,10S,15R,17R,18S)-17-(2-amino-6-oxo-6,9-dihydro-1H-purin-9-yl)-3,9,12,18-tetrahydroxy-8-[6-(methylamino)-9H-purin-9-yl]-2,4,7,11,14,16-hexaoxa-3λ^5,12λ^5-diphosphatricyclo[13.2.1.0^6,10]octadecane-3,12-dione], the ΔTm at 150 µM at AQ STING (G230A-R293Q) came to 9.3 °C; on WT STING [2], 3.8 °C. The EC50 on WT STING [1] stood at 150 nM.
For `Nc1nc(N)c2ncn([C@@H]3O[C@@H]4COP(=O)(O)O[C@@H]5[C@H](O)[C@@H](OCP(=O)(O)O[C@H]4[C@H]3O)O[C@H]5n3cnc4c(=O)[nH]c(N)nc43)c2n1` [Compound 50, (1R,6R,8R,9R,10S,15R,17R,18S)-17-(2-amino-6-oxo-6,9-dihydro-1H-purin-9-yl)-8-(2,6-diamino-9H-purin-9-yl)-3,9,12,18-tetrahydroxy-2,4,7,11,14,16-hexaoxa-3λ^5,12λ^5-diphosphatricyclo[13.2.1.0^6,10]octadecane-3,12-dione], the shift in melting temperature (ΔTm) at 150 µM at AQ STING (G230A-R293Q) was 17.5 °C; at WT STING [2], 11.9 °C. Further, on WT STING [1], the 50% effective concentration (EC50) was determined as 20 nM.
As for `CSc1ncnc2c1ncn2[C@@H]1O[C@@H]2COP(=O)(O)O[C@@H]3[C@H](O)[C@@H](OCP(=O)(O)O[C@H]2[C@H]1O)O[C@H]3n1cnc2c(=O)[nH]c(N)nc21` [Compound 51, (1R,6R,8R,9R,10S,15R,17R,18S)-17-(2-amino-6-oxo-6,9-dihydro-1H-purin-9-yl)-3,9,12,18-tetrahydroxy-8-[6-(methylsulfanyl)-9H-purin-9-yl]-2,4,7,11,14,16-hexaoxa-3λ^5,12λ^5-diphosphatricyclo[13.2.1.0^6,10]octadecane-3,12-dione], the figures for the ΔTm at 150 µM at AQ STING (G230A-R293Q) and on WT STING [2] were 15.9 °C and 8.6 °C, respectively. The EC50 on WT STING [1] stood at 10 nM.
The corresponding values for `Nc1nc2c(ncn2[C@@H]2O[C@@H]3OCP(=O)(O)O[C@H]4[C@H](O)[C@H](n5cnc6c(N)nc(F)nc65)O[C@@H]4COP(=O)(O)O[C@@H]2[C@@H]3O)c(=O)[nH]1` [Compound 52, (1R,6R,8R,9S,10S,15R,17R,18S)-8-(6-amino-2-fluoro-9H-purin-9-yl)-17-(2-amino-6-oxo-6,9-dihydro-1H-purin-9-yl)-3,9,12,18-tetrahydroxy-2,4,7,11,14,16-hexaoxa-3λ^5,12λ^5-diphosphatricyclo[13.2.1.0^6,10]octadecane-3,12-dione] are 20.1 °C, 13.9 °C and 30 nM.
Consider `C#Cc1cn([C@@H]2O[C@@H]3COP(=O)(O)O[C@@H]4[C@H](O)[C@@H](OCP(=O)(O)O[C@H]3[C@H]2O)O[C@H]4n2cnc3c(=O)[nH]c(N)nc32)c2ncnc(N)c12` [Compound 53, (1R,6R,8R,9R,10S,15R,17R,18S)-8-{4-amino-5-ethynyl-7H-pyrrolo[2,3-d]pyrimidin-7-yl}-17-(2-amino-6-oxo-6,9-dihydro-1H-purin-9-yl)-3,9,12,18-tetrahydroxy-2,4,7,11,14,16-hexaoxa-3λ^5,12λ^5-diphosphatricyclo[13.2.1.0^6,10]octadecane-3,12-dione], for which the results for the ΔTm at 150 µM on AQ STING (G230A-R293Q) and on WT STING [2] were 12.9 °C and 6.6 °C, respectively. The EC50 on WT STING [1] was 40 nM.
`Nc1nc2c(ncn2[C@@H]2O[C@@H]3OCP(=O)(O)O[C@H]4[C@@H](F)[C@H](n5cnc6c(N)nc(F)nc65)O[C@@H]4COP(=O)(O)O[C@@H]2[C@@H]3O)c(=O)[nH]1` [Compound 54, (1R,6R,8R,9R,10R,15R,17R,18S)-8-(6-amino-2-fluoro-9H-purin-9-yl)-17-(2-amino-6-oxo-6,9-dihydro-1H-purin-9-yl)-9-fluoro-3,12,18-trihydroxy-2,4,7,11,14,16-hexaoxa-3λ^5,12λ^5-diphosphatricyclo[13.2.1.0^6,10]octadecane-3,12-dione]: the ΔTm at 150 µM at AQ STING (G230A-R293Q) is 19.9 °C; on WT STING [2], 13 °C. The EC50 on WT STING [1] was determined as 12 nM.
For the compound `Nc1nc2c(ncn2[C@@H]2O[C@@H]3OCP(=O)(O)O[C@H]4C[C@H](n5cnc6c(N)ncnc65)O[C@@H]4COP(=O)(O)O[C@@H]2[C@@H]3O)c(=O)[nH]1` [Compound 55, (1R,6R,8R,10S,15R,17R,18S)-17-(2-amino-6-oxo-6,9-dihydro-1H-purin-9-yl)-8-(6-amino-9H-purin-9-yl)-3,12,18-trihydroxy-2,4,7,11,14,16-hexaoxa-3λ^5,12λ^5-diphosphatricyclo[13.2.1.0^6,10]octadecane-3,12-dione], the ΔTm at 150 µM worked out at 22.9 °C at AQ STING (G230A-R293Q) and 15.2 °C at WT STING [2]. The EC50 on WT STING [1] worked out at 10 nM.
As for `Nc1nc2c(ncn2[C@@H]2O[C@@H]3OCP(=O)(O)OC4C[C@H](n5cnc6c(N)nc(Cl)nc65)O[C@@H]4COP(=O)(O)OC2C3O)c(=O)[nH]1` (stereo partly drawn) [Compound 56, (1R,6R,8R,105,15R,17R,185)-8-(6-amino-2-chloro-9H-purin-9-yl)-17-(2-amino-6-oxo-6,9-dihydro-1H-purin-9-yl)-3,12,18-trihydroxy-2,4,7,11,14,16-hexaoxa-3λ^5,12λ^5-diphosphatricyclo[13.2.1.0^6,10]octadecane-3,12-dione], the ΔTm at 150 µM at AQ STING (G230A-R293Q) is 16.5 °C; on WT STING [2] it was 9.5 °C. Moreover, on WT STING [1], the EC50 came out at 50 nM.
